Assay results taken from patent publication US20260274807A1 (University of Health Sciences and Pharmacy in St. Louis, priority 2023, published 2026).

Tests used:
ERRγ = biological target: T1, ERRγ (Homo sapiens, UniProt P62508); assay: ERRE luciferase reporter assay in HEK293 cells transfected with pcDNA3.1 ERRγ; format: cell-based; set-up: key to EC50 (ERRγ) μM: * <1 μM; ** 1-5 μM; *** >5 μM; i.a. (inactive); conditions: HEK293 cells transfected with ERRE reporter construct and pcDNA3.1 ERRγ; compound for 24 hours; luciferase activity
T1 construct: expressed in transfected cells; host or cells: HEK293
T1 sequence (P62508 1-458): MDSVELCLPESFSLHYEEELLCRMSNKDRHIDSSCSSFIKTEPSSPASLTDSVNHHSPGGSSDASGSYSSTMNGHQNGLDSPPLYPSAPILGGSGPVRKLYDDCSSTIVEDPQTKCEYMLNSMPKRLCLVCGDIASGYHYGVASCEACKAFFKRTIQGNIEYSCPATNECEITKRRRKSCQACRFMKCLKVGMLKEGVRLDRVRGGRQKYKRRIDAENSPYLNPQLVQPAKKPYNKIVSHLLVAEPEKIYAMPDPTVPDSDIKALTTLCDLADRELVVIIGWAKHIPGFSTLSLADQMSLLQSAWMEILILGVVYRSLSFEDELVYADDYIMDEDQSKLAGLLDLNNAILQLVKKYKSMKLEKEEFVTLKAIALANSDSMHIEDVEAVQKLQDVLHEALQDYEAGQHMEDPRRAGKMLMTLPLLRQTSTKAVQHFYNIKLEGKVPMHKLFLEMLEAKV
Description: (§1) HEK293 cells were maintained in Dulbecco's modified Eagles medium (DMEM) supplemented with 10% fetal bovine serum at 37° C. under […]. […] Cells were transfected with ERRE reporter construct and pcDNA3.1 ERRα or ERRγ. Twenty-four-hours post-transfection, the cells were treated with vehicle or compound (various concentrations) for 24 hours (4 wells per dose). Luciferase activity was measured using the One-Glo Tox luciferase reporter assay system (Promega) and EC50s were calculated using GraphPad Prism software.

ERRα = biological target: T2, ERRα (Homo sapiens, UniProt P11474); assay: ERRE luciferase reporter assay in HEK293 cells transfected with pcDNA3.1 ERRα; format: cell-based; set-up: key to EC50 (ERRα) μM: * <1 μM; ** 1-5 μM; *** >5 μM; i.a. (inactive); conditions: HEK293 cells transfected with ERRE reporter construct and pcDNA3.1 ERRα; compound for 24 hours; luciferase activity
T2 construct: expressed in transfected cells; host or cells: HEK293
T2 sequence (P11474 1-423): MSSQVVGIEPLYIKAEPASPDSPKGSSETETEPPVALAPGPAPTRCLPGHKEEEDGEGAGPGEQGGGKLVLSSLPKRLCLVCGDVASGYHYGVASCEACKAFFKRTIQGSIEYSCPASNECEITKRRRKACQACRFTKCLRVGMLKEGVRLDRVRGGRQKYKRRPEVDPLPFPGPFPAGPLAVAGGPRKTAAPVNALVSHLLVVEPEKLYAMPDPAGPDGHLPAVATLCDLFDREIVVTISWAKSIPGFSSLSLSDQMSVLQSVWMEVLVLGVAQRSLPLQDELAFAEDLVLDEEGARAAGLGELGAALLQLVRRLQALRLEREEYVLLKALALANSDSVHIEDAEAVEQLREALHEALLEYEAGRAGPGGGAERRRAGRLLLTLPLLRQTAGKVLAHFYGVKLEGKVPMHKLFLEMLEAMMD
Description: as §1

EC50 (ERRγ) [nM] | EC50 (ERRα) [nM] | EC50 (ERRγ) μM (ERRγ) | EC50 (ERRα) μM (ERRα) | SMILES
< 1000 | < 1000 | – | – | Cc1ccc(-c2nnc(-c3ccnc4ccccc34)o2)cc1 [Entry 34, 2-(quinolin-4-yl)-5-(p-tolyl)-1,3,4-oxadiazole]
< 1000 | < 1000 | – | – | Brc1ccc(-c2nnc(-c3ccccc3)o2)cc1 [Entry 9]
< 1000 | < 1000 | – | – | Cc1ccc(-c2nnc(-c3cncs3)s2)cc1 [Entry 1082, 2-(thiazol-5-yl)-5-(p-tolyl)-1,3,4-thiadiazole]
> 5000 | > 5000 | – | – | COc1cccc(-c2nnc(-c3ccc(C(F)(F)F)cc3)o2)c1 [Entry 54, 2-(3-methoxyphenyl)-5-(4-(trifluoromethyl)phenyl)-1,3,4-oxadiazole]
< 1000 | < 1000 | – | – | c1ccc(-c2nnc(-c3ccccc3)o2)cc1 [Entry 1]
< 1000 | < 1000 | – | – | Cc1ccc(-c2nnc(-c3ccc(Cl)cc3)s2)cc1 [Entry 1048, 2-(4-chlorophenyl)-5-(p-tolyl)-1,3,4-thiadiazole]
< 1000 | < 1000 | – | – | Cc1ccc(-c2nnc(-c3cccs3)o2)cc1 [Entry 33, 2-(thiophen-2-yl)-5-(p-tolyl)-1,3,4-oxadiazole]
< 1000 | < 1000 | – | – | Nc1ccc(-c2nnc(-c3ccccc3)s2)cc1 [Entry 1030, 4-(5-phenyl-1,3,4-thiadiazol-2-yl)aniline]
< 1000 | < 1000 | – | – | Cc1ccc(-c2nnc(-c3ccnc4ccccc34)s2)cc1 [Entry 1025, 2-(quinolin-4-yl)-5-(p-tolyl)-1,3,4-thiadiazole]
> 5000 | > 5000 | – | – | O=[N+]([O-])c1ccccc1-c1nnc(-c2ccc(Cl)cc2)o1 [Entry 92, 2-(4-chlorophenyl)-5-(2-nitrophenyl)-1,3,4-oxadiazole]
< 1000 | < 1000 | – | – | COc1ccc(-c2nnc(-c3ccccc3[N+](=O)[O-])s2)cc1 [Entry 1021, 2-(4-methoxyphenyl)-5-(2-nitrophenyl)-1,3,4-thiadiazole]
< 1000 | < 1000 | – | – | CC(C)(C)c1ccc(-c2nnc(-c3ccccc3N)s2)cc1 [Entry 1027, 2-(5-(4-(tert-butyl)phenyl)-1,3,4-thiadiazol-2-yl)aniline]
< 1000 | < 1000 | – | – | COc1ccc(-c2nnc(-c3ccccc3)s2)cc1 [Entry 1001, 2-(4-methoxyphenyl)-5-phenyl-1,3,4-thiadiazole]
< 1000 | < 1000 | – | – | COc1cccc(-c2nnc(-c3ccccc3)s2)c1[N+](=O)[O-] [Entry 1023, 2-(3-methoxy-2-nitrophenyl)-5-phenyl-1,3,4-thiadiazole]
– | – | i.a. | i.a. | O=C(Nc1nnc(-c2ccccc2)s1)c1ccccc1 [Entry 1032, N-(5-phenyl-1,3,4-thiadiazol-2-yl)benzamide]
1000 to 5000 | 1000 to 5000 | – | – | COc1ccc([N+](=O)[O-])c(-c2nnc(-c3ccccc3)s2)c1 [Entry 1035, 2-(5-methoxy-2-nitrophenyl)-5-phenyl-1,3,4-thiadiazole]
< 1000 | < 1000 | – | – | c1ccc(-c2nnc(-c3cnccn3)s2)cc1 [Entry 1010, 2-phenyl-5-(pyrazin-2-yl)-1,3,4-thiadiazole]
> 5000 | 1000 to 5000 | – | – | FC(F)(F)c1cccc(-c2nnc(-c3ccccc3Cl)o2)c1 [Entry 65, 2-(2-chlorophenyl)-5-(3-(trifluoromethyl)phenyl)-1,3,4-oxadiazole]
< 1000 | < 1000 | – | – | Cc1ccccc1-c1nnc(-c2ccccc2)o1 [Entry 8]
< 1000 | < 1000 | – | – | Clc1ccc(-c2nnc(-c3ccccc3)s2)cc1 [Entry 1017, 2-(4-chlorophenyl)-5-phenyl-1,3,4-thiadiazole]

EC50 (ERRγ) [nM] | EC50 (ERRα) [nM] | EC50 (ERRγ) μM (ERRγ) | EC50 (ERRα) μM (ERRα) | SMILES
< 1000 | < 1000 | – | – | FC(F)(F)c1ccc(-c2nnc(-c3ccccn3)o2)cc1 [Entry 49, 2-(pyridin-2-yl)-5-(4-(trifluoromethyl)phenyl)-1,3,4-oxadiazole]
< 1000 | < 1000 | – | – | COc1ccc(-c2nnc(-c3ccccc3)o2)c([N+](=O)[O-])c1 [Entry 86, 2-(4-methoxy-2-nitrophenyl)-5-phenyl-1,3,4-oxadiazole]
1000 to 5000 | 1000 to 5000 | – | – | O=[N+]([O-])c1cccc(-c2nnc(-c3ccccc3)o2)c1 [Entry 81, 2-(3-nitrophenyl)-5-phenyl-1,3,4-oxadiazole]
< 1000 | < 1000 | – | – | Cc1ccc(-c2nnc(-c3ccccc3)o2)cc1 [Entry 4, 2-phenyl-5-(p-tolyl)-1,3,4-oxadiazole]
1000 to 5000 | < 1000 | – | – | FC(F)(F)c1ccc(-c2nnc(-c3ccccc3Cl)o2)cc1 [Entry 53, 2-(2-chlorophenyl)-5-(4-(trifluoromethyl)phenyl)-1,3,4-oxadiazole]
1000 to 5000 | 1000 to 5000 | – | – | Nc1ccccc1-c1nnc(-c2ccccc2)o1 [Entry 68, 2-(5-phenyl-1,3,4-oxadiazol-2-yl)aniline]
< 1000 | < 1000 | – | – | CC(C)(C)c1ccc(-c2nnc(-c3ccccc3[N+](=O)[O-])s2)cc1 [Entry 1016, 2-(4-(tert-butyl)phenyl)-5-(2-nitrophenyl)-1,3,4-thiadiazole]
> 5000 | > 5000 | – | – | O=[N+]([O-])c1ccc(Br)cc1-c1nnc(-c2ccccc2)o1 [Entry 84, 2-(5-bromo-2-nitrophenyl)-5-phenyl-1,3,4-oxadiazole]
< 1000 | < 1000 | – | – | c1ccc(-c2nnc(-c3ccccc3)s2)cc1 [Entry 1004, 2,5-diphenyl-1,3,4-thiadiazole]
< 1000 | < 1000 | – | – | Cc1ccc(-c2nnc(-c3ccc([N+](=O)[O-])cc3)o2)cc1 [Entry 39, 2-(4-nitrophenyl)-5-(p-tolyl)-1,3,4-oxadiazole]
1000 to 5000 | 1000 to 5000 | – | – | O=[N+]([O-])c1c(Cl)cccc1-c1nnc(-c2ccccc2)o1 [Entry 90, 2-(3-chloro-2-nitrophenyl)-5-phenyl-1,3,4-oxadiazole]
< 1000 | < 1000 | – | – | COc1ccc(-c2nnc(-c3ccccc3Cl)s2)cc1 [Entry 1024, 2-(2-chlorophenyl)-5-(4-methoxyphenyl)-1,3,4-thiadiazole]
< 1000 | < 1000 | – | – | Cc1ccc(-c2nnc(-c3scnc3C)s2)cc1 [Entry 1080, 2-(4-methylthiazol-5-yl)-5-(p-tolyl)-1,3,4-thiadiazole]
< 1000 | < 1000 | – | – | Cc1ccc(-c2nnc(-c3ccccc3Cl)s2)cc1 [Entry 1003, 2-(2-chlorophenyl)-5-(p-tolyl)-1,3,4-thiadiazole]
< 1000 | < 1000 | – | – | Cc1ccc(-c2nnc(-c3nccs3)s2)cc1 [Entry 1060, 2-(thiazol-2-yl)-5-(p-tolyl)-1,3,4-thiadiazole]
1000 to 5000 | 1000 to 5000 | – | – | FC(F)(F)c1cccc(-c2nnc(-c3cccnc3Cl)s2)c1 [Entry 1074, 2-(2-chloropyridin-3-yl)-5-(3-(trifluoromethyl)phenyl)-1,3,4-thiadiazole]
< 1000 | < 1000 | – | – | COc1ccc(-c2nnc(-c3ccc(C)o3)s2)cc1 [Entry 1020, 2-(4-methoxyphenyl)-5-(5-methylfuran-2-yl)-1,3,4-thiadiazole]
< 1000 | < 1000 | – | – | COc1ccc(-c2nnc(-c3ccccc3Cl)o2)cc1 [Entry 28, 2-(2-chlorophenyl)-5-(4-methoxyphenyl)-1,3,4-oxadiazole]
– | – | i.a. | i.a. | c1ccc(-c2nnc(-c3ccnc4ccccc34)o2)cc1 [Entry 15, 2-phenyl-5-(quinolin-4-yl)-1,3,4-oxadiazole]
1000 to 5000 | 1000 to 5000 | – | – | FC(F)(F)c1ccc(-c2nnc(-c3ccccc3)o2)cc1 [Entry 43, 2-phenyl-5-(4-(trifluoromethyl)phenyl)-1,3,4-oxadiazole]

SMILES | EC50 (ERRγ) [nM] | EC50 (ERRα) [nM] | EC50 (ERRγ) μM (ERRγ) | EC50 (ERRα) μM (ERRα)
O=[N+]([O-])c1ccc(-c2nnc(-c3ccc([N+](=O)[O-])cc3)o2)cc1 [Entry 13, 2,5-bis(4-nitrophenyl)-1,3,4-oxadiazole] | 1000 to 5000 | 1000 to 5000 | – | –
